Where two headings read alike, the source gives them in different places. Bridge positions count the residues as written; N and C are the ends. Square brackets hold non-standard residues; d marks the D form. Peptide text beside a SMILES is read from it. AEEA = NCCOCCOCC(=O)O
Key:
human GLP-1 R = biological target: T1, human GLP-1 R (Homo sapiens, UniProt P43220); assay: Human GLP-1 receptor efficacy assay (cAMP induction, FlashPlate); format: cell-based; conditions: read-out: hGLP-1 R EC50
T1 construct: expressed in transfected cells
T1 sequence (P43220 24-463): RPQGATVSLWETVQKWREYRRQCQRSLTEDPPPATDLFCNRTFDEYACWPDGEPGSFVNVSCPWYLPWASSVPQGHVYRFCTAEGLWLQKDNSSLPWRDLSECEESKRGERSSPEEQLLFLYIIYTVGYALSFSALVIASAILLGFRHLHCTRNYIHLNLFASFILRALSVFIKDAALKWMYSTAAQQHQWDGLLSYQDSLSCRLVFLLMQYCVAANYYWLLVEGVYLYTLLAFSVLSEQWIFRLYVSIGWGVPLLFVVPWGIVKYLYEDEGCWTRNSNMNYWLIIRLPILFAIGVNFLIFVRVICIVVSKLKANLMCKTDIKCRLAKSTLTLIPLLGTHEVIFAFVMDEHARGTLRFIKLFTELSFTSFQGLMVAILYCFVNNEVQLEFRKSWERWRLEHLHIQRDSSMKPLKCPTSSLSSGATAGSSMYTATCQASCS
Protocol: On the day of analysis, growth medium was removed and the cells were washed once with 200 μl Tyrode buffer [Tyrode's Salts (9.6 g/l), 10 mM HEPES, pH 7.4]. […] The reaction was stopped by addition of 25 μl 0.5 M HCl and incubated on ice for 60 min.

human CCK-B R = biological target: T2, human CCK-B R (Homo sapiens, UniProt P32239); assay: Human CCK-B receptor efficacy assay (AlphaScreen SureFire p-ERK); format: cell-based; conditions: Table 1; HEK293 cells expressing human CCK-B R, p-ERK; read-out: hCCK-B R EC50
T2 construct: expressed in transfected cells
T2 sequence (P32239 1-447): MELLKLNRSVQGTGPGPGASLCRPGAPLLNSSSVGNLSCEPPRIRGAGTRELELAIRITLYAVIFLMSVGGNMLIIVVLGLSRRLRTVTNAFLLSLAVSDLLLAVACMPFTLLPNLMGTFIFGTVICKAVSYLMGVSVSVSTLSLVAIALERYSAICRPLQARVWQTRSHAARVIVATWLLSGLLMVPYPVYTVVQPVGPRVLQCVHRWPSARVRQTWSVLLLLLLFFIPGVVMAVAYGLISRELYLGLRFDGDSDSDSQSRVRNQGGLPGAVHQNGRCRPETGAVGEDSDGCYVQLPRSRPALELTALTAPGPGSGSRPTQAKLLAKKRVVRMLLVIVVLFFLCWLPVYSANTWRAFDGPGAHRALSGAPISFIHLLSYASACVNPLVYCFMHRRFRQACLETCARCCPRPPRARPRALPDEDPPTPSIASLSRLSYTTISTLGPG

mouse CCK-B R = biological target: T3, mouse CCK-B R (Mus musculus, UniProt P56481); assay: Mouse CCK-B receptor efficacy assay (AlphaScreen SureFire p-ERK); format: cell-based; conditions: Table 1; HEK293 cells expressing mouse CCK-B R, p-ERK; read-out: mCCK-B R EC50
T3 construct: expressed in transfected cells
T3 sequence (P56481 1-453): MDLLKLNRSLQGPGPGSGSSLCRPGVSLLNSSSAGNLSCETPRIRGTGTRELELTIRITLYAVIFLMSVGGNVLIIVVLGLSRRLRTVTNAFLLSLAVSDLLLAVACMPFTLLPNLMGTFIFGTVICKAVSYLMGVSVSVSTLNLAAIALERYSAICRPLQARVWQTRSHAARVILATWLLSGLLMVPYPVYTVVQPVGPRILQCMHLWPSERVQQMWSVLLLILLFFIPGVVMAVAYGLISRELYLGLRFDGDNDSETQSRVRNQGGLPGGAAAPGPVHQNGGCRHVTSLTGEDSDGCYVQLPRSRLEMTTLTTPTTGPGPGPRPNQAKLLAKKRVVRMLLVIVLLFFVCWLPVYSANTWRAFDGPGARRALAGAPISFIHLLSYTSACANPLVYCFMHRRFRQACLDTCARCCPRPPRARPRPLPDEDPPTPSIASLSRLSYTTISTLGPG
From the text: CCK-B Receptor (CCK-B R) Efficacy Assay:
To test binding and activation of CCK-B R we produced stable cell lines expressing one of the human or mouse CCK receptors in a manner similar to that for production of the hGLP-1 R cell lines were generated (vide supra). In brief, we used HEK293 cells for transfection of the cDNA for human or mouse CCK-A R or CCK-B R [hCCK-A R (gene identity: L19315), hCCK-B R (NM_176875), mCCK-A R (NM_009827) and mCCK-B R (NM_007627)] all cloned into the transfection plasmid pIRESneo2dNGFR. The cells were grown according to standard protocol in growth medium and transfected with the plasmids using Lipofectamin (Invitrogen). The cells stably expressing CCK receptors were selected using G418 in the growth medium (only cells that have taken up and incorporated the cDNA expression plasmid survive) and propagated. Stocks of cells were frozen for later use.
In vitro effects of peptide conjugates of the invention were estimated by measuring p-ERK (using the AlphaScreen™ SureFire p-ERK assay) in HEK293 cells stably expressing the human and mouse CCK-B R (high-affinity Gastrin receptor), respectively. The Gastrin receptor efficacy assays (AlphaScreen™ SureFire p-ERK assay) were performed as follows:
The CCK-B R expressing cells in question were seeded at 20,000 cells/well in 100 μl growth medium [DMEM, 10% FCS, Penicillin (100 IU/ml), Streptomycin (100 μg/ml)] in a 96-well plate coated with poly-D-lysine. The cells were incubated in an incubator (37° C., 5% […]) for two days.
The growth medium was changed to 80 μl of serum-free medium [DMEM, Penicillin (100 IU/ml), Streptomycin (100 μg/ml)] per well, and incubation of the cells was continued for 19 hours in the incubator (37° C., 5% CO2).
• 1. After 19 hours, 20 μl of serum-free medium containing one of 5 different concentrations of peptide conjugate was added (performed in triplicate for each concentration), and the cells were incubated for 5 min. at room temperature. • 2. The stimulation medium was discarded by quickly turning the plate upside down, and 60 μl 1× lysis buffer (from the SureFire assay kit) was added per well. • 3. The plate was shaken on a plate-shaker for 5 min and then placed on ice. • 4. SureFire P-ERK assay: 4 μl of each supernatant was transferred to a 384 well proxiplate (Perkin Elmer). • 5. 4 μl of each of the two control lysates (unstimulated and stimulated) were added to the proxiplate in duplicate. • 6. […] 7 μl of the latter reaction buffer+activation buffer+beads per well were added in the proxiplate, the mix being resuspended carefully before addition to the wells. • 7. The plate was incubated for 2 hours in a dark box in a 22° C. incubator. • 8. The plate was analyzed on an Envision™ light-emission plate reader (Perkin-Elmer) using the appropriate reading program (Perkin-Elmer).

in vivo = assay: in vivo; set-up: species or system C57Bl mice; conditions: mouse, sc, 100 nmol/kg; for half-life: C57Bl
Protocol: Two C57Bl mice were given a single subcutaneous dose of 100 nmol/kg of each peptide. […] At each time point, samples from two mice were taken. Plasma samples were analyzed after solid phase extraction (SPE) by liquid chromatography mass spectrometry (LC-MS/MS).

[1] = Table 1, HEK293 cells expressing human GLP-1 R, cAMP

Compound	EC50 (human GLP-1 R; [1]) [nM]	EC50 (human GLP-1 R; Table 3) [nM]	EC50 (human CCK-B R) [nM]	EC50 (mouse CCK-B R) [nM]	EC50 (human GLP-1 R; Table 2) [nM]	half-life (in vivo) [h]	Half-life and exposure (in words) (in vivo)
H-HAEGTFTSDVSSYLEGQAAKEFIAWLVKGRSKKQGPWLEEEEEAYGWLDF-NH2 [Compound 40, GLP-1(7-36)-SKK-[Gln1,Leu15]Gastrin17]	0.116	0.031	15.6	58.6			
H-HAEGTFTSDVSSYLEGQAAKEFIAWLVKGRKQGPWLEEEEEAYGWLDF-NH2 [Compound 38, GLP-1(7-36)-K-[Gln1,Leu15]Gastrin17]	0.0842	0.03	77.3	114			
CC[C@H](C)[C@H](NC(=O)[C@H](Cc1ccccc1)NC(=O)[C@H](CC(C)C)NC(=O)[C@H](CCCNC(=N)N)NC(=O)[C@@H](NC(=O)[C@H](C)NC(=O)[C@H](CCC(=O)O)NC(=O)[C@H](CCC(=O)O)NC(=O)[C@H](CCC(=O)O)NC(=O)[C@H](CC(C)C)NC(=O)[C@H](Cc1ccc(O)cc1)NC(=O)[C@H](CCCCN)NC(=O)[C@H](CO)NC(=O)[C@H](CC(C)C)NC(=O)[C@H](CC(=O)O)NC(=O)[C@H](CO)NC(=O)[C@@H](NC(=O)[C@H](Cc1ccccc1)NC(=O)[C@@H](NC(=O)CNC(=O)[C@H](CCC(=O)O)NC(=O)CNC(=O)[C@@H](N)Cc1c[nH]cn1)[C@@H](C)O)[C@@H](C)O)C(C)C)C(=O)N[C@@H](CCC(=O)O)C(=O)N[C@@H](Cc1ccccc1)C(=O)N[C@@H](CC(C)C)C(=O)N[C@@H](CCCCN)C(=O)NCCOCCOCC(=O)NCCOCCOCC(=O)N[C@@H](Cc1ccc(O)cc1)C(=O)NCC(=O)N[C@@H](Cc1c[nH]c2ccccc12)C(=O)N[C@@H](CC(C)C)C(=O)N[C@@H](CC(=O)O)C(=O)N[C@@H](Cc1ccccc1)C(N)=O [Compound 77, [Tyr13,Leu14,Phe25]Exendin-4(1-27)-Peg3-Peg3-[Leu4]Gastrin6] (H-HGEGTFTSDLSKYLEEEAVRLFIEFLK[AEEA][AEEA]YGWLDF-NH2)					0.044	3.1	superior to the rest
CC[C@H](C)[C@H](NC(=O)[C@H](Cc1ccccc1)NC(=O)[C@H](CC(C)C)NC(=O)[C@@H]1CCCCNC(=O)CC[C@H](NC(=O)[C@H](CCC(=O)O)NC(=O)[C@H](CCSC)NC(=O)[C@H](CCC(N)=O)NC(=O)[C@H](CCCCN)NC(=O)[C@H](CO)NC(=O)[C@H](CC(C)C)NC(=O)[C@H](CC(=O)O)NC(=O)[C@H](CO)NC(=O)[C@@H](NC(=O)[C@H](Cc2ccccc2)NC(=O)[C@@H](NC(=O)CNC(=O)[C@H](CCC(=O)O)NC(=O)CNC(=O)[C@@H](N)Cc2c[nH]cn2)[C@@H](C)O)[C@@H](C)O)C(=O)N[C@@H](CCC(=O)O)C(=O)N[C@@H](C)C(=O)N[C@@H](C(C)C)C(=O)N1)C(=O)N[C@@H](CCC(=O)O)C(=O)N[C@@H](Cc1c[nH]c2ccccc12)C(=O)N[C@@H](CC(C)C)C(=O)N[C@@H](CCCCN)C(=O)N[C@@H](CC(N)=O)C(=O)NCCOCCOCC(=O)NCCOCCOCC(=O)N[C@@H](Cc1ccc(O)cc1)C(=O)NCC(=O)N[C@@H](Cc1c[nH]c2ccccc12)C(=O)N[C@@H](CC(C)C)C(=O)N[C@@H](CC(=O)O)C(=O)N[C@@H](Cc1ccccc1)C(N)=O [Compound 79, Side chain-cyclo([Glu16,Lys20]Exendin-4(1-28)-Peg3-Peg3-[Leu4]Gastrin6] (H-HGEGTFTSDLSKQMEEEAVKLFIEWLKN[AEEA][AEEA]YGWLDF-NH2; lactam 16-20)					0.026	1.5	
H-HAEGTFTSDVSSYLEGQAAKEFIAWLVKGRQGPWLEEEEEAYGWLDF-NH2 [Compound 37, GLP-1(7-36)-[Gln1,Leu15]Gastrin17]	0.145	0.03	25.9	73.1			
H-HAEGTFTSDVSSYLEGQAAKEFIAWLVKGRAAAQGPWLEEEEEAYGWLDF-NH2 [Compound 39, GLP-1(7-36)-AAA-[Gln1,Leu15]Gastrin17]	0.114	0.034	18.8	54.1			
CC[C@H](C)[C@H](NC(=O)[C@H](Cc1ccccc1)NC(=O)[C@H](CCC(=O)O)NC(=O)[C@H](CCCCN)NC(=O)[C@H](C)NC(=O)[C@H](C)NC(=O)[C@H](CCC(N)=O)NC(=O)CNC(=O)[C@H](CCC(=O)O)NC(=O)[C@H](CC(C)C)NC(=O)[C@H](Cc1ccc(O)cc1)NC(=O)[C@H](CO)NC(=O)[C@H](CO)NC(=O)[C@@H](NC(=O)[C@H](CC(=O)O)NC(=O)[C@H](CO)NC(=O)[C@@H](NC(=O)[C@H](Cc1ccccc1)NC(=O)[C@@H](NC(=O)CNC(=O)[C@H](CCC(=O)O)NC(=O)[C@H](C)NC(=O)[C@@H](N)Cc1c[nH]cn1)[C@@H](C)O)[C@@H](C)O)C(C)C)C(=O)N[C@@H](C)C(=O)N[C@@H](Cc1c[nH]c2ccccc12)C(=O)N[C@@H](CC(C)C)C(=O)N[C@H](C(=O)N[C@@H](CCCCN)C(=O)NCC(=O)N[C@@H](CCCNC(=N)N)C(=O)NCCCCCCCC(=O)NCCCCCCCC(=O)N[C@@H](CCC(N)=O)C(=O)NCC(=O)N1CCC[C@H]1C(=O)N[C@@H](Cc1c[nH]c2ccccc12)C(=O)N[C@@H](CC(C)C)C(=O)N[C@@H](CCC(=O)O)C(=O)N[C@@H](CCC(=O)O)C(=O)N[C@@H](CCC(=O)O)C(=O)N[C@@H](CCC(=O)O)C(=O)N[C@@H](CCC(=O)O)C(=O)N[C@@H](C)C(=O)N[C@@H](Cc1ccc(O)cc1)C(=O)NCC(=O)N[C@@H](Cc1c[nH]c2ccccc12)C(=O)N[C@@H](CC(C)C)C(=O)N[C@@H](CC(=O)O)C(=O)N[C@@H](Cc1ccccc1)C(N)=O)C(C)C [Compound 45, GLP-1(7-36)-8Aoc-8Aoc-[Gln1,Leu15]Gastrin17]			12.8	71.4			
